The source of these data is US20150191445A1, “ACYL-HYDRAZONE AND OXADIAZOLE COMPOUNDS, PHARMACEUTICAL COMPOSITIONS CONTAINING THE SAME AND USES THEREOF” (Universidade Federal de Santa Catarina, priority 2011, published 2015).

Data set [1] relates to human leukemic Jurkat cells and HEK. As to the kind of experiment: Screening of compounds by cell viability assay (MTT) in leukemic cells. In kind it is cell-based. Conditions: leukemic cells of Jurkat and HEK strains. Here is the method:
RPMI-1640 medium with 10% FBS (fetal bovine serum), 100 IU/mL penicillin, 100 µg/mL streptomycin and incubated at 37° C. and 5% CO2. Cytotoxicity assays were performed according to the method described in the literature (Pieters, R.; et al. In vitro drug sensitivity of cells from children with leukemia using the MTT assay with improved culture conditions. Blood, 1990, 76, 2327-2336; Pieters, R.; et al. Relation of cellular drug resistance to long-term clinical outcome in childhood acute lymphoblastic leukaemia. Lancet, 1991, 338, 399-403 e Kaspers, G. J.; et al. In vitro cellular drug resistance and prognosis in newly diagnosed childhood acute lymphoblastic leukemia. Blood, 1997, 90, 2723). Cells were resuspended at a concentration of 3.75 10^5 cells/mL in culture medium as described. Eighty microliters of this suspension were seeded into plates with 96 round-bottom wells, containing 20 microliters of different concentrations of compound or vehicle alone. Each treatment was done in triplicate. […] After incubating overnight, absorbance reading at 570 nm was carried out. The percentage of cells surviving the treatment were calculated relative to the number of surviving cells in the medium without addition of the compounds in question (“negative control”). […]

For another data set, the system named is REH cells. The data set can be described thus: MTT cytotoxicity assay, REH cell line. The settings on record: 48 h of treatment. It counts as cell-based, human. Here is the method: (§1) All compounds were resuspended in DMSO at stock concentration of 20 mM and stored at −20° C. For cytotoxicity testing, the dilutions from the stock solutions were made in culture medium (RPMI-1640 plus 10% of fetal bovine serum, 100 IU/ml penicillin and 100 µg/mL Streptomycin), immediately before being discharged to the cells.
(§2) The REH and Jurkat cell lines were maintained in
(§3) RPMI-1640 medium with 10% FBS (fetal bovine serum), 100 IU/mL penicillin, 100 µg/mL streptomycin and incubated at 37° C. and 5% CO2. Cytotoxicity assays were performed according to the method described in the literature (Pieters, R.; et al. In vitro drug sensitivity of cells from children with leukemia using the MTT assay with improved culture conditions. Blood, 1990, 76, 2327-2336; Pieters, R.; et al. Relation of cellular drug resistance to long-term clinical outcome in childhood acute lymphoblastic leukaemia. Lancet, 1991, 338, 399-403 e Kaspers, G. J.; et al. In vitro cellular drug resistance and prognosis in newly diagnosed childhood acute lymphoblastic leukemia. Blood, 1997, 90, 2723). Cells were resuspended at a concentration of 3.75 10^5 cells/mL in culture medium as described. Eighty microliters of this suspension were seeded into plates with 96 round-bottom wells, containing 20 microliters of different concentrations of compound or vehicle alone. Each treatment was done in triplicate. After 48 hours of incubation at 37° C. and 5% CO2, 20 μL of MTT solution was added (5 mg/mL of 1x PBS), followed by further incubation for 4 hours and 30 minutes at 37° C. and 5% CO2. During these 4 hours and 30 minutes, MTT (yellowish) is metabolized to formazan salt (bluish in color) by living cells. After this, 100 μL sodium dodecyl sulphate (SDS) 10%+0.1M of HCl were added to dissolve the formazan crystals. After incubating overnight, absorbance reading at 570 nm was carried out. The percentage of cells surviving the treatment were calculated relative to the number of surviving cells in the medium without addition of the compounds in question (“negative control”).
(§4) c) Determination of IC: IC50 is defined as the concentration of a compound at which 50% of maximal inhibition is obtained. After reading the absorbance, survival curves were constructed and the values of IC50 were obtained with the GraphPad Prism software.
For orientation: Formazan colour is commonly taken as a measure of viable cells.

In a further data set the test system is Jurkat cells. The data set can be described thus: MTT cytotoxicity assay, Jurkat cell line. It counts as cell-based, human. Conditions: 48 h of treatment, read-out: IC50 T (Jurkat). The protocol: as §1, §2, §3, §4
Data set [2] concerns the target Trypanosoma cruzi cruzain (Trypanosoma cruzi, UniProt P25779). The settings on record: cited from earlier work.
For data set [3], the system named is healthy and phytohemagglutinin-stimulated lymphocytes. As to the kind of experiment: MTT assay on normal lymphocytes stimulated with phytohemagglutinin. It counts as cell-based, human. Conditions: for Percentage of survival: 48 h, MTT. The protocol:
for the test of compound 07 against normal lymphocytes, blood from human donors was separated in a ficoll gradient and the mononuclear cells were cultivated at 200,000 cells/well, in 80 microliters of RPMI-1640 (containing 10% FBS, 100 IU/mL penicillin and 100 μg/mL streptomycin) and 20 microliters of phytohemagglutinin solution (Cultilab) in each well for stimulation of T lymphocytes. Compound 07 was added in serial dilutions (50%) from 300 to 1 nm. As a control, parallel tests were run with cells from leukemic Jurkat and REH cell lines, and experiments with colchicine with the same concentrations as compound 07. Cytotoxicity was assessed after 48 hours by the MTT method, as described Above.

Entries after “also recorded” stand apart in the source; their conditions may differ.

Trypanosoma cruzi cruzain, sequence (P25779 123-467): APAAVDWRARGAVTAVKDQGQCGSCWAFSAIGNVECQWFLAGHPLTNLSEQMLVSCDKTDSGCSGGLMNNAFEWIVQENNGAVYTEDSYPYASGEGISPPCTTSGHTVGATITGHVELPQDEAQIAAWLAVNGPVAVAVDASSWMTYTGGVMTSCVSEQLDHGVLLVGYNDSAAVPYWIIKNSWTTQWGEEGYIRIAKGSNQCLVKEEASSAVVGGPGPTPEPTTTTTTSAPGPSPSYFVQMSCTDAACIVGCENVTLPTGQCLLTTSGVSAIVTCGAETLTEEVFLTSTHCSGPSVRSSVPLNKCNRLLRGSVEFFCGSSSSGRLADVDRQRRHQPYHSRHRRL

What is called IC50 is the concentration that inhibits the measured activity by half. As for `COc1cc(C(=O)NN=Cc2ccc(Br)cc2)cc(OC)c1OC` [Compound 02], in data set [1], the antileukemic activity entry is on record as “excellent antileukemic activity; also recorded: significant antileukemic activity”. The concentration for half-maximal inhibition (IC50) in the data set with REH cells amounted to 33.7 nM; with Jurkat cells it was 31.4 nM. Further, in data set [2], the “inhibitory activity of cruzain” value was “did not show inhibitory activity”.
For orientation: melting point means the temperature of the solid-liquid transition. As to `COc1cc(/C=N/NC(=O)c2cc(OC)c(OC)c(OC)c2)cc(I)c1O` [Compound 05], the melting point was in the range of 247 to 248 °C.
Take `COc1cc(C(=O)NN=Cc2ccc(Cl)cc2)cc(OC)c1OC` [Compound 09]: the IC50 in the data set with REH cells was found to be 328 nM; with Jurkat cells it was 203 nM.
In the same order, the values of `COc1cc(C(=O)NN=Cc2ccc3c(c2)OCO3)cc(OC)c1OC` [Compound 10] are 206 nM and 154 nM.
As to `COc1cc(C(=O)NN=Cc2ccccc2Cl)cc(OC)c1OC` [Compound 11], the IC50 amounted to 459 nM in the data set on REH cells and 189 nM in the data set with Jurkat cells.
In the same order, the values of `COc1cc(C(=O)NN=Cc2ccc(C)cc2)cc(OC)c1OC` [Compound 16] are 70.6 nM and 71.5 nM.
In turn, `COc1cc(C(=O)N/N=C/c2cnc[nH]2)cc(OC)c1OC` [Compound 17] came in with a melting point of 230 to 231 °C.
For `COc1cccc(OC)c1/C=N/NC(=O)c1cc(OC)c(OC)c(OC)c1` [Compound 21], the melting point fell in the range of 245 to 246 °C.
`COc1cc(C(=O)N/N=C/c2ccc(Br)cc2O)cc(OC)c1OC` [Compound 26] yielded a melting point of 206 to 208 °C.
For `COc1cc(C(=O)N/N=C/c2ccc(Cl)c(C(F)(F)F)c2)cc(OC)c1OC` [Compound 29], the melting point lay in the range of 203 to 204 °C.
For the compound `COc1cc(C2OC(c3cc(OC)c(OC)c(OC)c3)=NN2C(C)=O)cc(Br)c1O` (stereo not drawn) [Compound 36], the melting point lay within 177 to 179 °C.
`COc1cc(C2OC(c3cc(OC)c(OC)c(OC)c3)=NN2C(C)=O)ccc1O` (stereo not drawn) [Compound 37] gave a melting point of 170 to 172 °C.
Take `COc1cc(C2=NN(C(C)=O)C(c3cccc4ccccc34)O2)cc(OC)c1OC` (stereo not drawn) [Compound 38]: the melting point is 189 to 192 °C.
Colchicine [reference compound]: the IC50 with REH cells was found to be 9.5 nM; with Jurkat cells, 7.7 nM. Also, the Percentage of survival in data set [3] (4.6 nM) is 109%; in data set [3] (9.38 nM), 110%; in data set [3] (18.75 nM) it was 95%; in data set [3] (37.5 nM), 84%; in data set [3] (75 nM), 75%; in data set [3] (150 nM) it was 69%. Further, the Percentage of survival in data set [3] (300 nM) is 63%. In data set [3] (300 nM), the “toxicity relative to the control / inhibition on the viability of lymphocytes T” value is 37%.
